Measurements from PMC10452266, “Divergent Pharmacology and Biased Signaling of the Four Melanocortin-4 Receptor Isoforms in Rainbow Trout (Oncorhynchus mykiss)” (Biomolecules, 2023).
Entries after “also recorded” stand apart in the source; their conditions may differ.

Legend:
[1] = system: omMc4rb2; assay: ERK1/2 phosphorylation assay, omMc4rb2; assay type: cell-based, rainbow trout (Oncorhynchus mykiss); conditions: 1 μM α-MSH, 10 nM AgRP, 1 μM MCL0020, 1 μM Ipsen 5i or 1 μM ML00253764, 5 min, HEK293T, Western blot, at least three independent experiments
Experimental: (§1) Human Embryonic Kidney (HEK) 293T cells, provided by American Type Culture Collection (Manassas, VA, USA), were cultured as described previously. Cells were plated into 24-well or 6-well plates pre-coated with 0.1% gelatin and transfected with plasmids by the calcium phosphate precipitation method.
(§2) HEK293T cells were transfected with omMC4Rs. Twenty-four hours after transfection, cells were washed twice and starved in media without serum for 24 h. […] Rabbit anti-pERK1/2 antibody (Catalog #4370, Cell Signaling, Beverly, MA, USA) and mouse anti-β-tubulin antibody (Developmental Studies Hybridoma Bank, University of Iowa, Iowa City, IA, USA) were used in this study. The bound antibodies were quantified using ImageJ 1.44 software (National Institute of Health, Bethesda, MD, USA).
(§3) Figure 9 ERK1/2 signaling properties of trout Mc4rs. (A) Immunoblots of pERK1/2 in cells expressing omMc4ra1, omMc4ra2, omMc4rb1, or omMc4rb2. HEK293T cells were transiently transfected with omMc4ra1, omMc4ra2, omMc4rb1, omMc4rb2, or empty vector plasmids and were starved overnight 24 h after transfection. […] Western blots were performed as described in Materials and Methods. (B) Densitometry results of basal pERK1/2 levels of omMc4ra1, omMc4ra2, omMc4rb1, and omMc4rb2. (C) Densitometry results of pERK1/2 level of omMc4ra1. (D) Densitometry results of pERK1/2 level of omMc4ra2. […]

[2] = system: saMc4r; conditions: ref [51], cited from earlier work
Source text: (§4) Numerous constitutively active mutants have been reported in several GPCRs, resulting in various human diseases, and inverse agonism will be vital for correcting the diseases caused by activating mutations in GPCRs. The constitutive activity of teleost Mc4r may have important physiological functions.

[3] = system: ciMc4r; conditions: ref [51], cited from earlier work
Source text: as §4

[4] = system: omMc4ra1; assay: Effect of antagonists on basal cAMP level, omMc4ra1; assay type: cell-based, rainbow trout (Oncorhynchus mykiss); conditions: 10 nM AgRP, 1 μM MCL0020, 1 μM ML00253764 or 1 μM Ipsen 5i, 1 h, HEK293T, RIA, three independent experiments
Experimental: (§5) Cells were plated into 24-well or 6-well plates pre-coated with 0.1% gelatin and transfected with plasmids by the calcium phosphate precipitation method.
(§6) Intracellular cAMP levels were determined according to previous protocol.

[5] = system: omMc4ra1; assay: ERK1/2 phosphorylation assay, omMc4ra1; assay type: cell-based, rainbow trout (Oncorhynchus mykiss); conditions: 1 μM α-MSH, 10 nM AgRP, 1 μM MCL0020, 1 μM Ipsen 5i or 1 μM ML00253764, 5 min, HEK293T, Western blot, at least three independent experiments
Experimental: as §1, §2, §3

[6] = system: saMc4r; conditions: saMc4r (spotted scat); ref [48],[51],[81]; cited from earlier work
Source text: (§7) MC4R-mediated ERK1/2 signaling has a crucial role in the modulation of energy homeostasis. Although teleost Mc4rs have much higher basal activities in Gs-cAMP signaling, constitutive activation of ERK1/2 signaling is only observed in topmouth culter Mc4r but not in saMc4r and ciMc4r. […] Our data documented that these three compounds only activated ERK1/2 signaling of omMc4rb1 but not the other three omMc4rs (Figure 9).

[7] = system: ciMc4r; conditions: ciMc4r (grass carp); ref [48],[51],[81]; cited from earlier work
Source text: as §7

[8] = target: T1, hMC4R (Homo sapiens, UniProt P32245); conditions: ref [48],[51],[81]; cited from earlier work
T1 construct: expressed in transfected cells; host or cells: HEK293T
T1 sequence (P32245 whole entry): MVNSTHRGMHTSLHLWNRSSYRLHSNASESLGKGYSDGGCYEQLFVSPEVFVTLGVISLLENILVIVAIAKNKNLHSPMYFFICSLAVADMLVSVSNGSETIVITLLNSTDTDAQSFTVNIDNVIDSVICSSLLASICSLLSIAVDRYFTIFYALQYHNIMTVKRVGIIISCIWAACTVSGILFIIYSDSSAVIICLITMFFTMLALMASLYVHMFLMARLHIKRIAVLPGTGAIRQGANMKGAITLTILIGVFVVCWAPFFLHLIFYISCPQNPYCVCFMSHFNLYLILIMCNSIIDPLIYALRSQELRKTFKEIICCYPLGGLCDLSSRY
Source text: as §7

[9] = system: omMc4rb1; assay: Effect of antagonists on basal cAMP level, omMc4rb1; assay type: cell-based, rainbow trout (Oncorhynchus mykiss); conditions: 10 nM AgRP, 1 μM MCL0020, 1 μM ML00253764 or 1 μM Ipsen 5i, 1 h, HEK293T, RIA, three independent experiments
Experimental: as §5, §6

[10] = system: omMc4rb1; assay: ERK1/2 phosphorylation assay, omMc4rb1; assay type: cell-based, rainbow trout (Oncorhynchus mykiss); conditions: for effect on ERK1/2 phosphorylation: 1 μM α-MSH, 10 nM AgRP, 1 μM MCL0020, 1 μM Ipsen 5i or 1 μM ML00253764, 5 min, HEK293T, Western blot, at least three independent experiments; for biased signaling, cAMP versus ERK1/2: concluded from binding, cAMP and pERK1/2 results
Experimental: as §1, §2
Figure 9 ERK1/2 signaling properties of trout Mc4rs. (A) Immunoblots of pERK1/2 in cells expressing omMc4ra1, omMc4ra2, omMc4rb1, or omMc4rb2. HEK293T cells were transiently transfected with omMc4ra1, omMc4ra2, omMc4rb1, omMc4rb2, or empty vector plasmids and were starved overnight 24 h after transfection. […] Western blots were performed as described in Materials and Methods. (B) Densitometry results of basal pERK1/2 levels of omMc4ra1, omMc4ra2, omMc4rb1, and omMc4rb2. (C) Densitometry results of pERK1/2 level of omMc4ra1. (D) Densitometry results of pERK1/2 level of omMc4ra2. (E) Densitometry results of pERK1/2 level of omMc4rb1. (F) Densitometry results of pERK1/2 level of omMc4rb2.

[11] = system: omMc4ra2; assay: Effect of antagonists on basal cAMP level, omMc4ra2; assay type: cell-based, rainbow trout (Oncorhynchus mykiss); conditions: 10 nM AgRP, 1 μM MCL0020, 1 μM ML00253764 or 1 μM Ipsen 5i, 1 h, HEK293T, RIA, three independent experiments
Experimental: as §5, §6

[12] = system: omMc4rb1; assay: Ligand-binding assay (displacement of 125I-NDP-MSH), omMc4rb1; set-up: species or system rainbow trout (Oncorhynchus mykiss)
Experimental: as §1
(§8) A binding assay was conducted as described previously. […].
(§9) Binding assays were used to investigate the binding properties of omMc4rs. […].  Figure 6 Ligand-binding properties of omMc4rs. […]. Data are expressed as % of hMC4R binding ± range from duplicate measurements within one experiment. The curves are representative of at least three independent experiments.

[13] = system: omMc4ra2; assay: ERK1/2 phosphorylation assay, omMc4ra2; assay type: cell-based, rainbow trout (Oncorhynchus mykiss); conditions: 1 μM α-MSH, 10 nM AgRP, 1 μM MCL0020, 1 μM Ipsen 5i or 1 μM ML00253764, 5 min, HEK293T, Western blot, at least three independent experiments
Experimental: as §1, §2, §3

[14] = system: ricefield eel Mc4r; set-up: method as in PMID 30075196, PMID 32615281; conditions: stated as similar to trout Mc4rs, ref [15],[51]; cited from earlier work
[15] = system: omMc4ra2; assay: Ligand-binding assay (displacement of 125I-NDP-MSH), omMc4ra2; set-up: species or system rainbow trout (Oncorhynchus mykiss); conditions: AgRP 10^-12 to 10^-7 M, MCL0020 and Ipsen 5i 10^-11 to 10^-6 M, ML00253764 10^-10 to 10^-5 M, transfected HEK293T cells
Experimental: as §1, §8, §9

[16] = system: ricefield eel Mc4r; set-up: method as in PMID 30075196; conditions: ref [15]; cited from earlier work
[17] = system: saMc4r; conditions: cited from earlier work
[18] = system: omMc4ra1; assay: Ligand-binding assay (displacement of 125I-NDP-MSH), omMc4ra1; set-up: species or system rainbow trout (Oncorhynchus mykiss); conditions: AgRP 10^-12 to 10^-7 M, MCL0020 and Ipsen 5i 10^-11 to 10^-6 M, ML00253764 10^-10 to 10^-5 M, transfected HEK293T cells
Experimental: as §1, §8, §9

[19] = system: omMc4rb2; assay: Ligand-binding assay (displacement of 125I-NDP-MSH), omMc4rb2; set-up: species or system rainbow trout (Oncorhynchus mykiss); conditions: AgRP 10^-12 to 10^-7 M, MCL0020 and Ipsen 5i 10^-11 to 10^-6 M, ML00253764 10^-10 to 10^-5 M, transfected HEK293T cells
Experimental: as §1, §8, §9

[20] = target: T1, hMC4R; conditions: cited from earlier work; for basal activity of hMC4R and constitutively active mutant hMC4Rs: hMC4R and mutants, ref [1],[28],[48],[51]
[21] = target: T1, hMC4R; conditions: cited from earlier work
[22] = system: ciMc4r; conditions: cited from earlier work
[23] = system: omMc4rb2; assay: Effect of antagonists on basal cAMP level, omMc4rb2; assay type: cell-based, rainbow trout (Oncorhynchus mykiss); conditions: for effect on basal cAMP level: 10 nM AgRP, 1 μM MCL0020, 1 μM ML00253764 or 1 μM Ipsen 5i, 1 h, HEK293T, RIA, three independent experiments
Experimental: as §5, §6

[24] = target: T1, hMC4R; assay: Ligand-binding assay (displacement of 125I-NDP-MSH), hMC4R; conditions: hMC4R; displacement of 125I-NDP-MSH; transiently transfected HEK293T cells, 48 h after transfection; mean ± SEM of at least three independent experiments; read-out: IC50
Experimental: as §5
A binding assay was conducted as described previously.
Binding assays were used to investigate the binding properties of omMc4rs. […] Data are expressed as % of hMC4R binding ± range from duplicate measurements within one experiment. The curves are representative of at least three independent experiments.

[25] = stated as similar to trout Mc4rs, ref [15],[51]

SMILES	effect on ERK1/2 phosphorylation [1]	effect on basal cAMP level [4]	effect on ERK1/2 phosphorylation [5]	biased signaling, Gs-cAMP versus ERK1/2 [6]	biased signaling, Gs-cAMP versus ERK1/2 [7]	biased signaling, Gs-cAMP versus ERK1/2 [8]	effect on basal cAMP level [9]	effect on ERK1/2 phosphorylation [10]	biased signaling, cAMP versus ERK1/2 [10]	effect on basal cAMP level [11]	effect on ERK1/2 phosphorylation [13]	displacement of 125I-NDP-MSH binding [15]	displacement of 125I-NDP-MSH binding [18]	displacement of 125I-NDP-MSH binding [19]	basal activity of hMC4R and constitutively active mutant hMC4Rs [20]	effect on basal cAMP level [23]	further results
COc1ccc(Br)cc1CCc1c(F)cccc1C1=NCCN1 [ML00253764, 2-[2-[2-(5-bromo-2-methoxyphenyl)-ethyl]-3-fluorophenyl]-4,5-dihydro-1H-imidazol]	no effect	did not cause significant effects on the cAMP levels	not by ML00253764, Ipsen 5i, or MCL0020	preferred activation on ERK1/2 signaling	preferred activation on ERK1/2 signaling	preferred activation on ERK1/2 signaling	did not cause significant effects on the cAMP levels	significantly increased	biased allosteric modulators for omMc4rb1 with selective activation on ERK1/2 signaling	did not cause significant effects on the cAMP levels	no effect	could not displace	could not displace	could not displace	reduced by inverse agonists	acted as an agonist for omMcrb2 and significantly increasing the cAMP levels; also recorded: did not cause significant effects on the cAMP levels; also recorded: could stimulate cAMP signaling	effect on cAMP levels ([2]; stated as similar to omMc4rs): did not cause significant effects on the cAMP levels; effect on cAMP levels ([3]; stated as similar to omMc4rs): did not cause significant effects on the cAMP levels; displacement of 125I-NDP-MSH binding ([12]; AgRP 10^-12 to 10^-7 M, MCL0020 and Ipsen 5i 10^-11 to 10^-6 M, ML00253764 10^-10 to 10^-5 M, transfected HEK293T cells): could not displace; orthosteric binding by displacing radiolabeled NDP-MSH [14]: neither ML00253764 nor Ipsen 5i bound; basal cAMP generation [16]: could decrease basal cAMP generation; orthosteric binding by displacing radiolabeled NDP-MSH [17, 25]: neither ML00253764 nor Ipsen 5i bound; basal activities of WT and constitutively active MC4R mutants ([20]; WT and mutants, ref [48],[51],[57],[58],[80]): decrease the basal activities; orthosteric binding ([21]; ref [15],[51]): bind to hMC4R orthosterically; orthosteric binding by displacing radiolabeled NDP-MSH [22, 25]: neither ML00253764 nor Ipsen 5i bound; biased signaling, cAMP versus ERK1/2 ([23]; concluded from binding, cAMP and pERK1/2 results): allosteric agonist for omMc4rb2, preferentially activating Gs-cAMP signaling
CC(=O)N[C@H](Cc1ccc2ccccc2c1)C(=O)N[C@@H](CCCNC(=N)N)C(=O)N[C@@H](Cc1ccc2ccccc2c1)C(N)=O [MCL0020, Ac-D-2-Nal-Arg-2-Nal-NH2]	no effect	no significant effect	not by ML00253764, Ipsen 5i, or MCL0020	preferred activation on ERK1/2 signaling	preferred activation on ERK1/2 signaling	preferred activation on ERK1/2 signaling	no significant effect	significantly increased	biased allosteric modulators for omMc4rb1 with selective activation on ERK1/2 signaling	no significant effect	no effect	only displaced ^125I-NDP-MSH binding to hMC4R and omMc4rb1	only displaced ^125I-NDP-MSH binding to hMC4R and omMc4rb1	only displaced ^125I-NDP-MSH binding to hMC4R and omMc4rb1	reduced by inverse agonists	no significant effect	basal and ligand-induced cAMP levels [2]: no effect on basal and ligand-induced cAMP levels; NDP-MSH-induced cAMP generation [3]: antagonizes NDP-MSH-induced cAMP generation; basal cAMP production [3]: decreases the basal cAMP production of ciMc4r; IC50 [24]: 62.3 ± 4.82 nM; IC50 ([12]; displacement of 125I-NDP-MSH, transiently transfected HEK293T cells, 48 h after transfection, mean ± SEM of at least three independent experiments): 305 ± 66.2 nM; NDP-MSH displacement ([17]; ref [51]): replaces NDP-MSH binding; type of ligand at hMC4R ([20]; hMC4R, ref [51],[56],[79]): neutral antagonist of hMC4R; NDP-MSH displacement ([21]; ref [51]): replaces NDP-MSH binding; NDP-MSH displacement ([22]; ref [51]): replaces NDP-MSH binding
